Data set [1] is described as follows: Stability of the compound in simulated intestinal fluid at pH 6.8 assessed as half life measured up to 24 hrs by RP-HPLC-UV analysis. The format is ADME.
A short description of data set [2]: Stability of the compound in simulated gastric fluid at pH 1.2 assessed as half life measured up to 24 hrs by RP-HPLC-UV analysis. The format is ADME.

Molecules are shown by their SMILES. *1 amine or outer side, *2 acyl side, *3 side chain or, on linkers, in order; H or OH if unused. Where a SMILES comes first, the peptide text is derived from it. Bridges are numbered along the chain shown (N, C = ends). X1 = O=C(CCC[*:2])[*:1]

By half-life is commonly meant the time needed for the level to fall by half in the phase considered.

Take `CC[C@H](C)[C@@H]1NC(=O)[C@@H]2CCCN2C(=O)[C@H](Cc2c[nH]c3ccccc23)NC(=O)[C@H](CO)NC(=O)[C@@H]2CSSC[C@@H]3NC(=O)[C@H]([C@@H](C)O)NC(=O)[C@H](CCC(=O)O)NC(=O)CNC(=O)[C@@H]4CSSC[C@H](NC(=O)CNC(=O)[C@H](CCC(N)=O)NC(=O)[C@H]([C@@H](C)O)NC(=O)[C@H](Cc5ccc(O)cc5)NC(=O)[C@H](CSSC[C@H](NC1=O)C(=O)N[C@@H](CCCCN)C(=O)N[C@@H](CCCNC(=N)N)C(=O)N[C@@H](CC(N)=O)C(=O)NCC(=O)N[C@@H](CC(C)C)C(=O)N1CCC[C@H]1C(=O)N[C@@H](C(C)C)C(=O)N4)NC(=O)[C@H]([C@@H](C)O)NC(=O)CNC(=O)[C@H](CC(C)C)NC(=O)[C@H]([C@@H](C)O)NC3=O)C(=O)N[C@@H]([C@@H](C)O)C(=O)N2`: the half-life in data set [1] and in data set [2] was over 24 h throughout.

For the compound `CC[C@H](C)[C@@H]1NC(=O)[C@H](CCC(=O)O)NC(=O)[C@@H]2CCCN2C(=O)[C@H](Cc2cnc[nH]2)NC(=O)[C@H](CC(=O)O)NC(=O)[C@H](Cc2ccc(O)cc2)NC(=O)[C@H](CC(N)=O)NC(=O)[C@@H]2CSSC[C@H](NC(=O)CN)C(=O)N[C@@H](CSSC[C@@H](C(N)=O)NC1=O)C(=O)N[C@@H](CO)C(=O)N[C@@H](CC(=O)O)C(=O)N1CCC[C@H]1C(=O)N[C@@H](CCCNC(=N)N)C(=O)N2`, the results for the half-life in data set [1] and in data set [2] were 2.4 h and over 24 h, respectively. Regarding `CC(C)C[C@@H]1NC(=O)CNC(=O)[C@H](CC(N)=O)NC(=O)[C@H](CCCNC(=N)N)NC(=O)[C@H]([C@@H](C)O)NC(=O)[C@@H]2CSSC[C@@H]3NC(=O)[C@H]([C@@H](C)O)NC(=O)CNC(=O)CNC(=O)[C@H](C(C)C)NC(=O)[C@@H]4CSSC[C@H](NC(=O)[C@H]([C@@H](C)O)NC(=O)[C@H](CSSC[C@H](NC(=O)[C@H](C(C)C)NC(=O)[C@@H]5CCCN5C1=O)C(=O)NCC(=O)N[C@@H](CCC(=O)O)C(=O)N[C@@H]([C@@H](C)O)C(=O)N4)NC(=O)CNC(=O)[C@@H]1CCCN1C(=O)[C@H]([C@@H](C)O)NC(=O)[C@H](CC(N)=O)NC3=O)C(=O)N[C@@H](CO)C(=O)N[C@@H](Cc1c[nH]c3ccccc13)C(=O)N1CCC[C@H]1C(=O)N[C@@H](C(C)C)C(=O)N2`, the half-life in data set [1] and in data set [2] was over 24 h throughout.

As for `CC(C)C[C@@H]1NC(=O)[C@H](CCC(=O)O)NC(=O)[C@@H](NC(=O)[C@H](CCC(=O)O)NC(=O)[C@H](CC(=O)O)NC(=O)[C@H](N)CC(N)=O)CSSC[C@@H]2NC(=O)[C@H](C)NC(=O)[C@H](C(C)C)NC(=O)[C@H](CC(N)=O)NC(=O)[C@H](C(C)C)NC(=O)[C@H](CSSC[C@@H](C(=O)N[C@H](CC(C)C)C(=O)O)NC(=O)CNC(=O)[C@H]([C@@H](C)O)NC2=O)NC1=O`, the half-life in data set [1] and in data set [2] was over 24 h each time. In the case of `C[C@@H]1NC(=O)[C@@H]2CCCN2C(=O)[C@H](CC(N)=O)NC(=O)[C@@H]2CSSC[C@H](N)C(=O)N[C@H]3CSSC[C@H](NC1=O)C(=O)N[C@@H]([C@@H](C)O)C(=O)NCC(=O)N[C@H](C(=O)N[C@@H](Cc1ccc(O)cc1)C(=O)O)CSSC[C@H](NC(=O)[C@H](Cc1ccc(O)cc1)NC(=O)[C@H](CCC(=O)O)NC3=O)C(=O)N2` [LINACLOTIDE] (HELM PEPTIDE1{C.C.E.Y.C.C.N.P.A.C.T.G.C.Y}$PEPTIDE1,PEPTIDE1,1:R3-6:R3|PEPTIDE1,PEPTIDE1,2:R3-10:R3|PEPTIDE1,PEPTIDE1,5:R3-13:R3$$$V2.0), in data set [2], the half-life was over 24 h. With `CC[C@H](C)[C@@H]1NC(=O)[C@H](Cc2ccc(OC)cc2)NC(=O)CCCSC[C@@H](C(=O)N2CCC[C@H]2C(=O)N[C@@H](CC(C)C)C(=O)NCC(N)=O)NC(=O)[C@H](CC(N)=O)NC(=O)[C@H](CCC(N)=O)NC1=O` [CARBETOCIN] (Y(Me)IQNCPLG-NH2; linker N-5 via X1), the half-life in data set [2] was over 24 h. For the compound `CC[C@H](C)[C@@H]1NC(=O)[C@H](CCC(=O)O)NC(=O)[C@@H]2CCCN2C(=O)[C@H](Cc2c[nH]cn2)NC(=O)[C@H](CC(=O)O)NC(=O)[C@H](Cc2ccc(O)cc2)NC(=O)[C@H](CC(N)=O)NC(=O)[C@@H]2CSSC[C@@H]3NC(=O)CNC(=O)CNC(=O)CNC(=O)[C@H](C)NC(=O)[C@H](C)NC(=O)CNC(=O)CNC(=O)[C@@H](CSSC[C@H](NC3=O)C(=O)N[C@@H](CO)C(=O)N[C@@H](CC(=O)O)C(=O)N3CCC[C@H]3C(=O)N[C@@H](CCCNC(=N)N)C(=O)N2)NC1=O`, the half-life in data set [1] is 1.5 h; in data set [2] it was over 24 h.
